Key:
[1] = test system: retinal vessels in adult mice; experiment: effect on retinal vessels in adult mice; format: in vivo, C57BL6J mice; conditions: 50 mg/kg/day, 5 days
Description: Ischemic retinopathy is produced in C57/BL6J mice by the following method: Seven-day-old mice and their mothers are placed in an airtight incubator and exposed to an atmosphere of 75±3% oxygen for 5 days. Incubator temperature is maintained at 23±2° C., and oxygen is measured every 8 hours with an oxygen analyzer. After 5 days, the mice are removed from the incubator, placed in room air, and drug treatment is begun. […] Vehicle (control) or vehicle containing various concentrations of drug (volume =50 μl in neonates and 100 μl in adult mice) is placed in the stomach by gavage. After 5 days of treatment at P17, mice are sacrificed, eyes are rapidly removed and frozen in optimum cutting temperature embedding compound (OCT; Miles Diagnostics, Elkhart, IN) or fixed in 10% phosphate-buffered formalin and embedded in paraffin. Adult C57BL6J mice are also treated by gavage with drug or vehicle and after 5 days, they are sacrificed and their eyes are processed for frozen or paraffin sections. […] Slides are rinsed with 0.05M Tris-buffered saline, pH 7.6 (TBS) and incubated 2 hours at room temperature with biotinylated lectin. […] Some slides are counterstained with hematoxyfn and all are mounted with Cytoseal. […] The mean of the 13 measurements from each eye is used as a single experimental value.

[2] = target: insulin receptor (Homo sapiens, UniProt P06213); experiment: cellular autophosphorylation assay, Chinese hamster ovary cells transfected with RTK gene; conditions: transfected CHO cells
Description: (§1) In vivo activity requires drugs to enter cells and therefore agents are tested in cellular autophosphorylation assays, using Chinese hamster ovary cells transfected with one of several RTK genes.

[3] = target: c-Kit (Homo sapiens, UniProt P10721); conditions: transfected CHO cells
[4] = target: T1, Flt-1 (Homo sapiens, UniProt P17948); experiment: standard tyrosine kinase assay: phosphorylation of poly(GluTyr) by GST-fusion kinase domain; format: biochemical
T1 construct: GST-fusion proteins of the kinase domains of several tyrosine kinase receptors; GST
T1 sequence (P17948 827-1158 limits assumed): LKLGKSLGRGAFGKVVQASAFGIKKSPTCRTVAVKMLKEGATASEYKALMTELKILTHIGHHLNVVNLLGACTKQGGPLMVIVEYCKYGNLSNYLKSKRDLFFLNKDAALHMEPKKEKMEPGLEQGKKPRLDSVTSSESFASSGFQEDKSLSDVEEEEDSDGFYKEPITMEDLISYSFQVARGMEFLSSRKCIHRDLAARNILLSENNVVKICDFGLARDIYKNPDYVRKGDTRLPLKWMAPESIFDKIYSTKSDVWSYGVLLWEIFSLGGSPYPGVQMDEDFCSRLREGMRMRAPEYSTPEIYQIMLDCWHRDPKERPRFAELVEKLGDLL

[5] = test system: developing retinal vessels of neonatal mice; experiment: drug treatment of mice during retinal vascular development; format: in vivo, C57/BL6J mice
Description: […] of newborn C57/BL6J mice are divided into treatment and control groups which received daily subcutaneous injections of 10 mg/kg of drug or vehicle, respectively. At P7 or P10, mice are anesthetized with ether, and perfused with 1 ml of phosphate-buffered saline containing 50 mg/ml of fluorescein-labeled dextran (2×10^6 average mw, Sigma, St. Louis, Mo.).. The eyes are removed and fixed for 1 hour in 10% phosphate-buffered formalin. The cornea and […] are removed and the entire retina is carefully dissected from the eyecup, radially cut from the edge of the retina to the equator in all 4 quadrants, and flat-mounted in Aquamount. with photoreceptors facing upward.

[6] = test system: PDGF receptors; experiment: cellular autophosphorylation assay, Chinese hamster ovary cells transfected with RTK gene; format: cell-based; conditions: transfected CHO cells
Description: as §1

[7] = target: c-erbB2 (Homo sapiens, UniProt P04626); experiment: as above; conditions: transfected CHO cells
Chain of c-erbB2 (P04626 23-1255): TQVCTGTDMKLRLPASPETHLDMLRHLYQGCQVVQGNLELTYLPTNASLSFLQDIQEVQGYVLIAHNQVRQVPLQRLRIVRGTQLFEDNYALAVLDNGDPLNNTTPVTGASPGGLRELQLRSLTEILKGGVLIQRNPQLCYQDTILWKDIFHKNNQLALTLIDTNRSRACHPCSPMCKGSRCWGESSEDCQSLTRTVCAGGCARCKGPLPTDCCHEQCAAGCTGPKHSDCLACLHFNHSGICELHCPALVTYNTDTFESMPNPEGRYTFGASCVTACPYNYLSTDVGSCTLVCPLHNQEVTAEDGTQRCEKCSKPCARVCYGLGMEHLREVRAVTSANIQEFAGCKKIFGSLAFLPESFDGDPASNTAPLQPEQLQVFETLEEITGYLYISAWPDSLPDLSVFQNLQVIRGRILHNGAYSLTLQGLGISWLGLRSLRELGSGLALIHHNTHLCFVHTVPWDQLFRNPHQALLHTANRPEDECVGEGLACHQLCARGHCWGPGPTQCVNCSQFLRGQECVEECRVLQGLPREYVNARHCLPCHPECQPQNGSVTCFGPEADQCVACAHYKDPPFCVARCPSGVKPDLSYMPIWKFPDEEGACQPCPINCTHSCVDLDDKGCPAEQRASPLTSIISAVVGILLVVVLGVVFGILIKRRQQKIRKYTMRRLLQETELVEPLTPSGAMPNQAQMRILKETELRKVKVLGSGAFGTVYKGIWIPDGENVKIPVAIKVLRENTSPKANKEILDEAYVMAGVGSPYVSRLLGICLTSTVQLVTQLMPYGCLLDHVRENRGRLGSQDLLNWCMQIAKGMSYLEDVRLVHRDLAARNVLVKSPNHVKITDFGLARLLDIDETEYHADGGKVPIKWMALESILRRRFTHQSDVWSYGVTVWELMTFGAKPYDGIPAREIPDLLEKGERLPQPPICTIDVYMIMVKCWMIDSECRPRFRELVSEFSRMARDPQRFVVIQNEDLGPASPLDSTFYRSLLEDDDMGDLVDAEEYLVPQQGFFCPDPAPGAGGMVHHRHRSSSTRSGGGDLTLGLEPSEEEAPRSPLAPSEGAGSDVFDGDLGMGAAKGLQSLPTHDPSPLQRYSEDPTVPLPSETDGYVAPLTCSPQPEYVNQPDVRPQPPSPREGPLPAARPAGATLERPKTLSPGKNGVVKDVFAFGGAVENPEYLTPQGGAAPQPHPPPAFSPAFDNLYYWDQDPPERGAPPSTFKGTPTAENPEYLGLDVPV
Description: as §1

[8] = test system: mice with choroidal neovascularization; experiment: laser-induced choroidal neovascularization in mice; conditions: 50 mg/kg/day by gavage, two weeks after laser
[9] = test system: VEGF receptors; experiment: cellular autophosphorylation assay, Chinese hamster ovary cells transfected with RTK gene; conditions: transfected CHO cells
Description: as §1

[10] = test system: mice with ischemic retinopathy; experiment: retinal neovascularization in mice with oxygen-induced ischemic retinopathy; conditions: P17 mice
Description: Ischemic retinopathy is produced in C57/BL6J mice by the following method: Seven-day-old mice and their mothers are placed in an airtight incubator and exposed to an atmosphere of 75±3% oxygen for 5 days. Incubator temperature is maintained at 23±2° C., and oxygen is measured every 8 hours with an oxygen analyzer. After 5 days, the mice are removed from the incubator, placed in room air, and drug treatment is begun. […] Vehicle (control) or vehicle containing various concentrations of drug (volume =50 μl in neonates and 100 μl in adult mice) is placed in the stomach by gavage. After 5 days of treatment at P17, mice are sacrificed, eyes are rapidly removed and frozen in optimum cutting temperature embedding compound (OCT; Miles Diagnostics, Elkhart, IN) or fixed in 10% phosphate-buffered formalin and embedded in paraffin. Adult C57BL6J mice are also treated by gavage with drug or vehicle and after 5 days, they are sacrificed and their eyes are processed for frozen or paraffin sections.
Slides are rinsed with 0.05M Tris-buffered saline, pH 7.6 (TBS) and incubated 2 hours at room temperature with biotinylated lectin. […] Some slides are counterstained with hematoxyfn and all are mounted with Cytoseal.
The entire eye is sampled by staining sections roughly 50-60 μm apart, which provided 13 sections per eye for analysis. […] The mean of the 13 measurements from each eye is used as a single experimental value.

[11] = test system: other RTKs including VEGF receptors; experiment: standard tyrosine kinase assay, other RTKs; format: biochemical
[12] = target: T2, C-Met (Homo sapiens, UniProt P08581); experiment: standard tyrosine kinase assay: phosphorylation of poly(GluTyr) by GST-fusion kinase domain; format: biochemical; conditions: kinase inhibitory profile
T2 construct: GST-fusion proteins of the kinase domains of several tyrosine kinase receptors; GST
T2 sequence (P08581 1078-1345 limits assumed): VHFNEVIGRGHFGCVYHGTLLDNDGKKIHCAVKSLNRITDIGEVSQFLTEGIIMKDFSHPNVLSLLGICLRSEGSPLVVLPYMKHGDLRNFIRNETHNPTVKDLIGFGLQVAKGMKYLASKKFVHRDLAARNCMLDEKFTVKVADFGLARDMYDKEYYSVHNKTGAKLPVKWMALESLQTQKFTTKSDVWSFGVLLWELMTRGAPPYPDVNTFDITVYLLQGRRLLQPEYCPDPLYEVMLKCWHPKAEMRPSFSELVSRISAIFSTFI

[13] = target: T3, Tie-2 (Homo sapiens, UniProt Q02763); experiment: as above; format: biochemical; conditions: kinase inhibitory profile
T3 construct: GST-fusion proteins of the kinase domains of several tyrosine kinase receptors; GST
T3 sequence (Q02763 824-1096 limits assumed, species assumed): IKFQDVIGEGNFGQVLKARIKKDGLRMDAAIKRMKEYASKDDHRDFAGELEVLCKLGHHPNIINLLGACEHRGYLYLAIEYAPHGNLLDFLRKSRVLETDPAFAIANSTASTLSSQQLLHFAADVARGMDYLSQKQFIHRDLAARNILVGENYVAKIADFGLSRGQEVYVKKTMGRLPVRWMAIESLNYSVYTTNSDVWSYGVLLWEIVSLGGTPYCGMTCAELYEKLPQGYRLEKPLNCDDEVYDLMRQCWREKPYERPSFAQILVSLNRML

[14] = target: T4, Flk-1 (Mus musculus, UniProt P35918); experiment: as above; format: biochemical; conditions: kinase inhibitory profile, Table I
T4 construct: GST-fusion proteins of the kinase domains of several tyrosine kinase receptors; GST
T4 sequence (P35918 832-1160 limits assumed): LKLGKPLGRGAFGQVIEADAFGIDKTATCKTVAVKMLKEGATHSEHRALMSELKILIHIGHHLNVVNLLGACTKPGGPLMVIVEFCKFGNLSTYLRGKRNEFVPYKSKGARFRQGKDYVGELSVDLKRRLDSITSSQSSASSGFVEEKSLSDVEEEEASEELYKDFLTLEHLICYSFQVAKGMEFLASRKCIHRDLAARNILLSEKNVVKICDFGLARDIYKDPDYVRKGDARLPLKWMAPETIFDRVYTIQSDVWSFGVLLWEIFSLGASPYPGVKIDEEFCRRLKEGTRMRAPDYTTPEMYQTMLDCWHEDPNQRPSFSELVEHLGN

Chain of c-Kit (P10721 26-976): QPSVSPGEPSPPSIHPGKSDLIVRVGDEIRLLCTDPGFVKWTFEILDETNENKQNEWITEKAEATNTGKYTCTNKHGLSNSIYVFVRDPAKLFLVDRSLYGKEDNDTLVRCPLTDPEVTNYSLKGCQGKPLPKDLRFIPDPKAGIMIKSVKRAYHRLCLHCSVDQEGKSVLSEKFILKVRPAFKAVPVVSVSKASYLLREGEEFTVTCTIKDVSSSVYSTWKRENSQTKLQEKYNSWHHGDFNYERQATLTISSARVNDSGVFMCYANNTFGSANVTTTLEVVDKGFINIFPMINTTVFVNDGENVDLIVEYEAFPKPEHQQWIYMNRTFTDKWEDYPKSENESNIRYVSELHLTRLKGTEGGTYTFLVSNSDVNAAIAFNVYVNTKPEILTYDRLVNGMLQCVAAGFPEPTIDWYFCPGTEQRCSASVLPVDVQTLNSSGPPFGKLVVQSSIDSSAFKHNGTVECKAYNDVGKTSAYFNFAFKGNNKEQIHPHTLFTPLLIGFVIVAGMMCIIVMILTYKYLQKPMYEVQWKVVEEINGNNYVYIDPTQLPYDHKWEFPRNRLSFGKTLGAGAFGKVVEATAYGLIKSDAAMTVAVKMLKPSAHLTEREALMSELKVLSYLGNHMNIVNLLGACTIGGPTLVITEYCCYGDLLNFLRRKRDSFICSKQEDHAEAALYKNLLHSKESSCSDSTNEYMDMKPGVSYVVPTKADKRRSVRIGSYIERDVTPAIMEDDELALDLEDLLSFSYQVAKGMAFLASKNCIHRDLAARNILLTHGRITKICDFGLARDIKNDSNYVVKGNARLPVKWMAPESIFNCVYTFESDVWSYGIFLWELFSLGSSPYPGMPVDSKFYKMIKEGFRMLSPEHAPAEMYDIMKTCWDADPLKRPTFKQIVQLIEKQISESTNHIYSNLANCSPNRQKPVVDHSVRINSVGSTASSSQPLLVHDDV
Chain of insulin receptor (P06213 28-1382, species assumed): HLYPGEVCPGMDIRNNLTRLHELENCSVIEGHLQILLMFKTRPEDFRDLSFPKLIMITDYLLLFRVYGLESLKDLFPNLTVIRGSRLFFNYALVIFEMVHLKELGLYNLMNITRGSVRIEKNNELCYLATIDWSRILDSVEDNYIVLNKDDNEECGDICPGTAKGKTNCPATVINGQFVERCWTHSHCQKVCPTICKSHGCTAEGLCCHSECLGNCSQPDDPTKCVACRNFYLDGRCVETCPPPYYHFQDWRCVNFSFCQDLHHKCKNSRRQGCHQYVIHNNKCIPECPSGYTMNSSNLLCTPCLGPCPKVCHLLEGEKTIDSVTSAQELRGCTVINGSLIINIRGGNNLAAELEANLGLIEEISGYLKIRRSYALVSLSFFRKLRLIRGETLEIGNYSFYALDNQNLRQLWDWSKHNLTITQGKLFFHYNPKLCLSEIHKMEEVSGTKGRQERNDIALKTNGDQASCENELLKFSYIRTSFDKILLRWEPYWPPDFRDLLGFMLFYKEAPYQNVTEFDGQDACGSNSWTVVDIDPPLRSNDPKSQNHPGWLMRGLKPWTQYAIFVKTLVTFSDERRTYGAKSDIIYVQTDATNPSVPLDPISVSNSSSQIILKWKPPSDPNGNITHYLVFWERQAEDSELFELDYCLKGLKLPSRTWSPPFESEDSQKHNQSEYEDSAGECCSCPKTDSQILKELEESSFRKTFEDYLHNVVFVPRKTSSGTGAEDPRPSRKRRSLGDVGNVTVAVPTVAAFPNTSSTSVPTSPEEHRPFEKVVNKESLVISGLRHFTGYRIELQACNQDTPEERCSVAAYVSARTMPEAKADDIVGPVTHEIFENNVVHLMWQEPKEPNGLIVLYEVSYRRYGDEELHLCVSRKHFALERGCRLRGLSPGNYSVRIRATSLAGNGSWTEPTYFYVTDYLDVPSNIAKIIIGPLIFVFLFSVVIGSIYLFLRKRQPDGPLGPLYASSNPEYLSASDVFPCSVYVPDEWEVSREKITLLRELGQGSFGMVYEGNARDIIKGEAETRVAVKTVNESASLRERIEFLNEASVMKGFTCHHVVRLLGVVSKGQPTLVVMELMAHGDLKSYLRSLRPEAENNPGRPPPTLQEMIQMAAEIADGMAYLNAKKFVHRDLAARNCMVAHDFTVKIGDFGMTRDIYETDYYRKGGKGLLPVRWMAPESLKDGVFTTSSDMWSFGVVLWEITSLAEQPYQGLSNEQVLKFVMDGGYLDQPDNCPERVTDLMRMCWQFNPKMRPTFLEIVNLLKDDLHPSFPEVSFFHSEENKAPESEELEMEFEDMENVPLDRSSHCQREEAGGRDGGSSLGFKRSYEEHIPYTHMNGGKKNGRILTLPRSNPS

SMILES: Clc1ccc(Nc2nnc(Cc3ccncc3)c3ccccc23)cc1 [CGP 79787D]
- total area of endothelial staining in the retina or appearance of retinal vessels versus vehicle [1]: no difference
- inhibition of autophosphorylation of insulin receptor [2]: poor inhibitor
- inhibition of autophosphorylation of c-Kit [3]: inhibits
- inhibition of phosphorylation by kinase domain of human VEGF receptor 1 [4]: good inhibitor
- extension of retinal vessels toward the periphery at P7 ([5]; 10 mg/kg daily injections from P0, P7): only extended about half way to the periphery
- extension of superficial capillary bed at P10 ([5]; 10 mg/kg daily injections from P0, P10): has not yet reached the edge of the retina
- inhibition of autophosphorylation of PDGF receptors [6]: inhibits
- inhibition of autophosphorylation of c-erbB2 [7]: poor inhibitor
- appearance of overlying retinal vessels [8]: appeared normal
- choroidal neovascularization at site of laser-induced rupture of Bruch's membrane [8]: very little if any choroidal neovascularization
- inhibition of autophosphorylation of VEGF receptors [9]: inhibits
- decrease of total endothelial staining in the retina ([10]; 0.25 mg/kg): not statistically significant
- staining in the inner nuclear layer ([10]; 0.25 mg/kg): no identifiable decrease
- endothelial cell staining in the retina ([10]; 2.5 mg/kg twice a day): significantly less than vehicle-treated controls
- endothelial staining in the inner nuclear layer ([10]; 2.5 mg/kg twice a day): some decrease
- endothelial cell staining in inner nuclear layer and outer plexiform layer (deep capillary bed) ([10]; 25 mg/kg twice a day): striking absence
- neovascularization (endothelial cells on the surface of the retina) ([10]; 25 mg/kg twice a day, gavage, 5 days): complete inhibition
- endothelial cell staining within the retina ([10]; 25 mg/kg twice a day, gavage, 5 days, versus vehicle): dramatic decrease

SMILES: Cc1ccc(NC(=O)c2ccc(CN3CCN(C)CC3)cc2)cc1Nc1nccc(-c2cccnc2)n1 [CGP 57 148B]
- inhibition of autophosphorylation of PDGF receptors [6]: potent inhibitors
- inhibition of autophosphorylation of VEGF receptors [9]: poor inhibitors
- inhibitory activity on other RTKs including VEGF receptors [11]: little or no inhibitory activity

SMILES: Cc1ccc(NC(=O)c2ccccc2)cc1Nc1nccc(-c2cccnc2)n1 [CGP 53 716]
- IC50 [12]: > 10 µM
- IC50 ([4]; kinase inhibitory profile): > 1 µM
- IC50 [13]: > 1 µM
- inhibition of autophosphorylation of PDGF receptors [6]: potent inhibitors
- inhibition of autophosphorylation of VEGF receptors [9]: poor inhibitors
- inhibitory activity on other RTKs including VEGF receptors [11]: little or no inhibitory activity
- IC50 [14]: > 1 µM

Reference: patent US20030171375A1, “Method for treating ocular neovascular diseases” (priority 2002, published 2003)
